Legend:
[1] = test system: CD8+ T cells of healthy HLA-A*02 donors; assay: In vitro immunogenicity: T-cell priming with aAPCs loaded with peptide/MHC complexes and anti-CD28 antibody, pMHC multimer readout; assay type: cell-based, human; conditions: Table 10B
Excerpt: In order to obtain information regarding the immunogenicity of the TUMAPs of the present invention, the inventors performed investigations using an in vitro T-cell priming assay based on repeated stimulations of CD8+ T cells with artificial antigen presenting cells (aAPCs) loaded with peptide/MHC complexes and anti-CD28 antibody.
In order to perform in vitro stimulations by artificial antigen presenting cells loaded with peptide-MHC complex (pMHC) and anti-CD28 antibody, the inventors first isolated CD8+ T cells from fresh HLA-A*02 leukapheresis products via positive selection using CD8 microbeads (Miltenyi Biotec, Bergisch-Gladbach, Germany) of healthy donors obtained from the University clinics Mannheim, Germany, after informed consent.
PBMCs and isolated CD8+ lymphocytes were incubated in T-cell medium (TCM) until use consisting of RPMI-Glutamax (Invitrogen, Karlsruhe, Germany) supplemented with 10% heat inactivated human AB serum (PAN-Biotech, Aidenbach, Germany), 100 U/ml Penicillin/100 μg/ml Streptomycin (Cambrex, Cologne, Germany), 1 mM sodium pyruvate (CC Pro, Oberdorla, Germany), 20 μg/ml Gentamycin (Cambrex). 2.5 ng/ml IL-7 (PromoCell, Heidelberg, Germany) and 10 U/ml IL-2 (Novartis Pharma, Nümberg, Germany) were also added to the TCM at this step.
Generation of pMHC/anti-CD28 coated beads, T-cell stimulations and readout was performed in a highly defined in vitro system using four different pMHC molecules per stimulation condition and 8 different pMHC molecules per readout condition.
The purified co-stimulatory mouse IgG2a anti human CD28 Ab 9.3 (Jung et al., 1987) was chemically biotinylated using Sulfo-N-hydroxysuccinimidobiotin as recommended by the manufacturer (Perbio, Bonn, Germany). Beads used were 5.6 μm diameter streptavidin coated polystyrene particles (Bangs Laboratories, Illinois, USA).
pMHC used for positive and negative control stimulations were A*0201/MLA-001 (peptide […] (SEQ ID NO. 152) from modified Melan-A/MART-1) and A*0201/DDX5-001 ([…] from DDX5 (SEQ ID NO. 153)), respectively.
800.000 beads/200 μl were coated in 96-well plates in the presence of 4×12.5 ng different biotin-pMHC, washed and 600 ng biotin anti-CD28 were added subsequently in a volume of 200 μl. Stimulations were initiated in 96-well plates by co-incubating […] CD8+ T cells with 2×10^5 washed coated beads in 200 μl TCM supplemented with 5 ng/ml IL-12 (PromoCell) for 3 days at 37° C. Half of the medium was then exchanged by fresh TCM supplemented with 80 U/ml IL-2 and incubating was continued for 4 days at 37° C. This stimulation cycle was performed for a total of three times. For the pMHC multimer readout using 8 different pMHC molecules per condition, a two-dimensional combinatorial coding approach was used as previously described (Andersen et al., 2012) with minor modifications encompassing coupling to 5 different fluorochromes. Finally, multimeric analyses were performed by staining the cells with Live/dead near IR dye (Invitrogen, Karlsruhe, Germany), CD8-FITC antibody clone SK1 (BD, Heidelberg, Germany) and fluorescent pMHC multimers. For analysis, a BD LSRII SORP cytometer equipped with appropriate lasers and filters was used. Peptide specific cells were calculated as percentage of total CD8+ cells. Evaluation of multimeric analysis was done using the FlowJo software (Tree Star, Oregon, USA). In vitro priming of specific multimer+ CD8+ lymphocytes was detected by comparing to negative control stimulations.

[2] = target: HLA-A*02:01 (Homo sapiens, UniProt P04439, D140Y/D185E/D98H/E176V/E277Q/G131W/G231S/I119V/I121R/I166T/I218V/L300P/L318F/N151K/N90K/P208A/P217A/Q86G/Q94H/R138H/R169H/T345S); assay: MHC binding assay (UV-ligand exchange, beta2m ELISA, peptide exchange yield); conditions: binding to HLA-A*02:01 ranged by peptide exchange yield, β2m ELISA
Excerpt: Candidate peptides for T cell based therapies according to the present invention were further tested for their MHC binding capacity (affinity). The individual peptide-MHC complexes were produced by UV-ligand exchange, where a UV-sensitive peptide is cleaved upon UV-irradiation, and exchanged with the peptide of interest as analyzed. Only peptide candidates that can effectively bind and stabilize the peptide-receptive MHC molecules prevent dissociation of the MHC complexes. To determine the yield of the exchange reaction, an ELISA was performed based on the detection of the light chain (β2m) of stabilized MHC complexes. The assay was performed as generally described in Rodenko et al. (Rodenko et al., 2006).
96 well MAXISorp plates (NUNC) were coated over night with 2 ug/ml streptavidin in PBS at room temperature, washed 4× and blocked for 1 h at 37° C. in 2% BSA containing blocking buffer. Refolded HLA-A*02:01/MLA-001 monomers served as standards, covering the range of 15-500 ng/ml. Peptide-MHC monomers of the UV-exchange reaction were diluted 100 fold in blocking buffer. Samples were incubated for 1 h at 37° C., washed four times, incubated with 2 ug/ml HRP conjugated anti-β2m for 1h at 37° C., washed again and detected with TMB solution that is stopped with […]. Absorption was measured at 450 nm. Candidate peptides that show a high exchange yield (preferably higher than 50%, most preferred higher than 75%) are generally preferred for a generation and production of antibodies or fragments thereof, and/or T cell receptors or fragments thereof, as they show sufficient avidity to the MHC molecules and prevent dissociation of the MHC complexes.

Peptide exchange (MHC class I binding score) [2] | Substance | Wells positive [%] [1]
+++ (≥50 = +++) | 18 (YVLDLAAKV; listed as Homo sapiens) [compound 18] | ++ (20%-49% = ++)
+++ (≥50 = +++) | 6 (VLFELSKTV; listed as Homo sapiens) [compound 6] | + (<20% = +)
